Assay results published in patent publication US10464901B2, “Composition including benzene diamine derivative for preventing or treating degenerative brain diseases” (UNIST(ULSAN NATIONAL INSTITUTE OF SCIENCE AND TECHNOLOGY), priority 2017, dated 2019).

Legend:
[1] = Antioxidant effect: free organic radical-scavenging activity (ABTS) using cell lysate; format: biochemical; conditions: Table 1 summary of Example 3; symbols not defined
Description: It was examined whether the benzene diamine derivatives of the present disclosure have an antioxidant effect. It is known that reactive oxygen species induces oxidative stress in neuronal cells to cause neuronal cell death and causes protein misfolding to induce formation of Aβ aggregates. Therefore, compounds having antioxidant effects may be candidates for preventing or treating dementia.
Free organic radical-scavenging activity of the compound was determined according to a protocol of Cayman Chemical Company (Ann Arbor, Mich., USA) with slight modifications. For antioxidant analysis using a cell lysate, cells were seeded in a 6-well plate, and cultured until they reached 80-90% confluence. A cell lysate was prepared according to a known method, washed with a cold phosphate buffer solution (PBS; pH 7.4, GIBCO), and then harvested. Cell pellet was produced by centrifugation (2,000 g, 4° C., 10 min). This pellet was sonicated (5 sec pulse, 20 sec interval, three times) in 2 ml of cold assay buffer S13 (5 mM potassium phosphate, pH 7.4; 0.9% NaCl; 0.1% glucose) on ice. A cell lysate was centrifuged at 4° C. for 10 minutes at 5,000 g. A supernatant was removed, and left on ice until use. To the cell lysate supernatant (10 μl), the compound, metmyoglobin, ABTS (2,2′-azino-bis-3-ethylbenzothiazoline-6-sulfonic acid), and hydrogen peroxide were sequentially added. The mixture was incubated on a shaker at room temperature for 5 minutes, and absorbance at 750 nm was measured. The compound at a final concentration of 45, 90, 135, 180, 225, or 330 μM and Trolox (6-hydroxy-2,5,7,8-tetramethyl-chroman-2-carboxylic acid, dissolved in EtOH) were used. Antioxidant activity was calculated according to the measured absorbance [% inhibition=100×(A0−A)/A0, A0 represents absorbance of the supernant of the cell lysate]. Each measurement was repeated in triplicate.

[2] = system: APP/PS/Tau dementia mouse model; test: Morphological change of brain of dementia mouse model; format: in vivo; conditions: oral 100 μg/kg twice a week for 2 months, FIG. 6
Description: In order to examine therapeutic effects of the benzene diamine derivatives on dementia, dementia mouse models were orally administered with the benzene diamine derivative, and morphological changes in the brains thereof were examined.
In detail, APP/PS/Tau was purchased as the dementia mouse model from Jackson lab (BAR HARBOR, USA), and APP/Tau female and APP/PSen1de9 purchased from Taconic (Hudson, USA) were cross-mated for 6 generations, and 4-month-old mouse models were obtained from F1. The dementia mouse models were divided into groups of 6 mice, and among the dementia mouse models, a control group was orally administered with a vehicle (PBS) for 2 months, and an experimental group was orally administered with 100 μg/kg/0.1 ml of N^1-(pyridin-2-ylmethyl)benzene-1,4-diamine (Compound 2) twice a week for 2 months. Thereafter, the mice were sacrificed, and their brains were removed. Their longitudinal sections were cut, and morphological changes were examined. For comparison, a normal mouse was sacrificed and its brain was removed. Its longitudinal section was cut, and morphological changes were examined.

[3] = target: T1, oligomeric Aβ42 (Homo sapiens, UniProt P05067); test: Brain tissue immunohistofluorescence, oligomeric Aβ; format: in vivo, mouse; conditions: oral 100 μg/kg twice a week for 2 months, confocal, FIG. 8
T1 construct: from tissue; host or cells: brain of dementia mouse models
T1 sequence (P05067 672-713 limits assumed): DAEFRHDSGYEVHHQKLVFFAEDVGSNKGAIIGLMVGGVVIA
Description: Oligomeric Aβ formation in the brain tissue may cause neuronal cell death by neuronal cytotoxicity, which may cause dementia. Therefore, anatomical analysis of the brain tissue was performed to examine whether the benzene diamine derivatives of the present disclosure inhibit neuronal cytotoxicity by oligomeric Aβ in dementia mouse models.
In detail, as in Experimental Example 7-1, the dementia mouse models were prepared and their brain tissues were stained. Anti-oligomeric Aβ primary antibody (ab126892, Abcam, Eugene, USA) labeled with QD525 probe (red fluorescence) was used to examine changes in the quantity of oligomeric Aβ42. Further, to measure changes of plaques, the tissues were stained with a fluorescent staining reagent MX04 (blue) and incubated at 4° C. for 12 hours. Thereafter, the tissues were observed under a confocal microscope at 0.5×10.

## Nc1ccc(NCc2ccccn2)cc1 [Compound 2, N^1-(pyridin-2-ylmethyl)benzene-1,4-diamine]
[1]
  Reactive oxygen species (antioxidant effect): ◯ (better effect than TEAC)
[2]
  brain morphology / longitudinal section: brain morphology similar to that of the normal group
[3]
  oligomeric Aβ in brain: oligomeric Aβ was hardly observed
